The source of these data is patent US8178577B2, “Tricyclic derivatives as potent and selective histone deacetylase inhibitors” (Shenzhen Chipscreen Biosciences Ltd., priority 2008, dated 2012).

Format in all cases: cell-based
The subject of test [1] is HDAC Class I. The test can be described thus: P21 reporter gene assay in HeLa cells. Particulars: relative to SAHA, 24 hours. As for the experimental part:
(§1) HDAC subtype selectivity inhibition assay of tested compounds was carried out by several reporter gene assays experiments. Briefly, HeLa cells were seeded in 96-well plates the day before transfection to give a confluence of 50-80%. Cells were transfected with one of reporter gene plasmids containing a promoter sequences or response elements upstream of a luciferase gene construct using FuGene6 transfection reagent according to the manufacturer's instructions (Roche). The promoter or response elements including p21-promoter, gdf11-promoter, serum response element (SRE), MEF-binding element were fused upstream to the luciferase gene reporter construct. For normalizing the transfection efficiency, a GFP expression plasmid was cotransfected. Cells were allowed to express protein for 24 hours followed by addition of individual compounds or the vehicle (DMSO). 24 hours later the cells were harvested, and the luciferase assays were performed using the luciferase assay kit according to the manufacturer's instructions (Promega). To normalize the data from the luciferase assays, β-galactosidase activity from transfected cells was measured using a kit (Promega) as instructed by the manufacturer.
(In general: In a reporter assay the amount or activity of a reporter protein is the signal.)

The target in test [2] is T1, HDAC3 (Homo sapiens, UniProt O15379).
T1 construct: endogenous in cells; host or cells: HeLa
The test can be described thus: gdf11 reporter gene assay in HeLa cells. Particulars: HeLa, 24 h, read-out: % of SAHA Response for HDAC3 at 10 μM (gdf11 reporter gene). On the procedure: as §1

Test [3] concerns the target T2, HDAC7 (Homo sapiens, UniProt Q8WUI4).
T2 construct: endogenous in cells; host or cells: HeLa
T2 sequence (Q8WUI4 1-952): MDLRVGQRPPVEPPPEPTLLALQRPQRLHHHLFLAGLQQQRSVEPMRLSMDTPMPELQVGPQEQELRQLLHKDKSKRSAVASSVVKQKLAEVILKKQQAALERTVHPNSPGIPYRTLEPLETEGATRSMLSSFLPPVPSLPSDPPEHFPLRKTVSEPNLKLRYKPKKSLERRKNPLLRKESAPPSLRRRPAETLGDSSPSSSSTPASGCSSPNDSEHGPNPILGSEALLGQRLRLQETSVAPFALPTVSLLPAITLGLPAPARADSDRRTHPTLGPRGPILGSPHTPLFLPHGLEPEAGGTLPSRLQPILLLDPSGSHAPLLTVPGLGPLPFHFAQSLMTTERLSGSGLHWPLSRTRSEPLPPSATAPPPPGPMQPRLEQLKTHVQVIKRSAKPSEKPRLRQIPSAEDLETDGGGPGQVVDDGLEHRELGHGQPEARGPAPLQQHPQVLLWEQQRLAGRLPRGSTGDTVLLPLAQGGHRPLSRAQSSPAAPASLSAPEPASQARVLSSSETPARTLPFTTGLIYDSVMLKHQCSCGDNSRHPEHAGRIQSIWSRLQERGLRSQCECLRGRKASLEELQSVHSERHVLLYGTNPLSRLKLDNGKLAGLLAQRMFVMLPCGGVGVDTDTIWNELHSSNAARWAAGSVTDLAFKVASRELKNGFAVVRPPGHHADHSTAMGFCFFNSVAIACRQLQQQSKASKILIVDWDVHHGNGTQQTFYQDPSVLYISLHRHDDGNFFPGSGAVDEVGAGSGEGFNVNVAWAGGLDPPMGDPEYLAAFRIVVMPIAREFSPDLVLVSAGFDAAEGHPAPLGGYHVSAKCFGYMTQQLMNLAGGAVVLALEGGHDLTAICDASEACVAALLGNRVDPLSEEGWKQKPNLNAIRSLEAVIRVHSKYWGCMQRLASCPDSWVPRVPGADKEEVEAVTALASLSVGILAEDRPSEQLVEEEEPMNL
The test can be described thus: Nur77 reporter gene assay in HeLa cells. Particulars: HeLa, 24 h, read-out: % of SAHA Response for HDAC7 at 10 μM (Nur77 reporter gene). As for the experimental part: as §1

In test [4] the test system is Hut-78. The test can be described thus: Cell proliferation (MTS), Hut-78. Particulars: Homo sapiens, HuT78, 72 hours. As for the experimental part: (§2) Measurement of In Vivo Cell Proliferation:
(§3) Tumor cells were trypsinized and plated into 96-well plates at 3,000 per well and incubated in complete medium with 10% FBS for 24 hours. Compounds were added over a final concentration range of 100 μmol/L to 100 nmol/L in 0.1% DMSO and incubated for 72 hours in complete medium. The effects on proliferation were determined by addition of MTS reagent (Promega) according to the instruction, incubation for 2 hours at 37° C. in CO2 incubator, and record the absorbance at 490 nm using an ELISA plate reader.

Test [5] deals with HL60. The test can be described thus: Cell proliferation (MTS), HL60. The note with it: Homo sapiens, HL-60, 72 hours. As for the experimental part:
as §2, §3

The subject of test [6] is HeLa. The test can be described thus: Cell proliferation (MTS), HeLa. Particulars: Homo sapiens, 72 hours. As for the experimental part: as §2, §3
In test [7] the test system is A549. The test can be described thus: Cell proliferation (MTS), A549. Particulars: Homo sapiens, 72 hours. On the procedure:
as §2, §3

Broadly, the GI50 is the concentration giving 50% growth inhibition.

T1 sequence (O15379 whole entry): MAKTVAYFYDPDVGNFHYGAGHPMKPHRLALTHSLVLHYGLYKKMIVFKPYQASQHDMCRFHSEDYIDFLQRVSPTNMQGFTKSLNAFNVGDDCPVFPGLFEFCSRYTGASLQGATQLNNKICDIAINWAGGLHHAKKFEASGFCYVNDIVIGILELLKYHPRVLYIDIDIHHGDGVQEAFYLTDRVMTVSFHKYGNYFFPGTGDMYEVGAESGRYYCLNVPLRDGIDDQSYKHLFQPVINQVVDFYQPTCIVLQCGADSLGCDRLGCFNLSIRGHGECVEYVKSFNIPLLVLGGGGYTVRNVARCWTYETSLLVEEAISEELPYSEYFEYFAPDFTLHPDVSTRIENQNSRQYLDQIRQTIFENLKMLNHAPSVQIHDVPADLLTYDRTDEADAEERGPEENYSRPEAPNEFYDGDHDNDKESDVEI
T1 sequence (Q9Y618 whole entry partner): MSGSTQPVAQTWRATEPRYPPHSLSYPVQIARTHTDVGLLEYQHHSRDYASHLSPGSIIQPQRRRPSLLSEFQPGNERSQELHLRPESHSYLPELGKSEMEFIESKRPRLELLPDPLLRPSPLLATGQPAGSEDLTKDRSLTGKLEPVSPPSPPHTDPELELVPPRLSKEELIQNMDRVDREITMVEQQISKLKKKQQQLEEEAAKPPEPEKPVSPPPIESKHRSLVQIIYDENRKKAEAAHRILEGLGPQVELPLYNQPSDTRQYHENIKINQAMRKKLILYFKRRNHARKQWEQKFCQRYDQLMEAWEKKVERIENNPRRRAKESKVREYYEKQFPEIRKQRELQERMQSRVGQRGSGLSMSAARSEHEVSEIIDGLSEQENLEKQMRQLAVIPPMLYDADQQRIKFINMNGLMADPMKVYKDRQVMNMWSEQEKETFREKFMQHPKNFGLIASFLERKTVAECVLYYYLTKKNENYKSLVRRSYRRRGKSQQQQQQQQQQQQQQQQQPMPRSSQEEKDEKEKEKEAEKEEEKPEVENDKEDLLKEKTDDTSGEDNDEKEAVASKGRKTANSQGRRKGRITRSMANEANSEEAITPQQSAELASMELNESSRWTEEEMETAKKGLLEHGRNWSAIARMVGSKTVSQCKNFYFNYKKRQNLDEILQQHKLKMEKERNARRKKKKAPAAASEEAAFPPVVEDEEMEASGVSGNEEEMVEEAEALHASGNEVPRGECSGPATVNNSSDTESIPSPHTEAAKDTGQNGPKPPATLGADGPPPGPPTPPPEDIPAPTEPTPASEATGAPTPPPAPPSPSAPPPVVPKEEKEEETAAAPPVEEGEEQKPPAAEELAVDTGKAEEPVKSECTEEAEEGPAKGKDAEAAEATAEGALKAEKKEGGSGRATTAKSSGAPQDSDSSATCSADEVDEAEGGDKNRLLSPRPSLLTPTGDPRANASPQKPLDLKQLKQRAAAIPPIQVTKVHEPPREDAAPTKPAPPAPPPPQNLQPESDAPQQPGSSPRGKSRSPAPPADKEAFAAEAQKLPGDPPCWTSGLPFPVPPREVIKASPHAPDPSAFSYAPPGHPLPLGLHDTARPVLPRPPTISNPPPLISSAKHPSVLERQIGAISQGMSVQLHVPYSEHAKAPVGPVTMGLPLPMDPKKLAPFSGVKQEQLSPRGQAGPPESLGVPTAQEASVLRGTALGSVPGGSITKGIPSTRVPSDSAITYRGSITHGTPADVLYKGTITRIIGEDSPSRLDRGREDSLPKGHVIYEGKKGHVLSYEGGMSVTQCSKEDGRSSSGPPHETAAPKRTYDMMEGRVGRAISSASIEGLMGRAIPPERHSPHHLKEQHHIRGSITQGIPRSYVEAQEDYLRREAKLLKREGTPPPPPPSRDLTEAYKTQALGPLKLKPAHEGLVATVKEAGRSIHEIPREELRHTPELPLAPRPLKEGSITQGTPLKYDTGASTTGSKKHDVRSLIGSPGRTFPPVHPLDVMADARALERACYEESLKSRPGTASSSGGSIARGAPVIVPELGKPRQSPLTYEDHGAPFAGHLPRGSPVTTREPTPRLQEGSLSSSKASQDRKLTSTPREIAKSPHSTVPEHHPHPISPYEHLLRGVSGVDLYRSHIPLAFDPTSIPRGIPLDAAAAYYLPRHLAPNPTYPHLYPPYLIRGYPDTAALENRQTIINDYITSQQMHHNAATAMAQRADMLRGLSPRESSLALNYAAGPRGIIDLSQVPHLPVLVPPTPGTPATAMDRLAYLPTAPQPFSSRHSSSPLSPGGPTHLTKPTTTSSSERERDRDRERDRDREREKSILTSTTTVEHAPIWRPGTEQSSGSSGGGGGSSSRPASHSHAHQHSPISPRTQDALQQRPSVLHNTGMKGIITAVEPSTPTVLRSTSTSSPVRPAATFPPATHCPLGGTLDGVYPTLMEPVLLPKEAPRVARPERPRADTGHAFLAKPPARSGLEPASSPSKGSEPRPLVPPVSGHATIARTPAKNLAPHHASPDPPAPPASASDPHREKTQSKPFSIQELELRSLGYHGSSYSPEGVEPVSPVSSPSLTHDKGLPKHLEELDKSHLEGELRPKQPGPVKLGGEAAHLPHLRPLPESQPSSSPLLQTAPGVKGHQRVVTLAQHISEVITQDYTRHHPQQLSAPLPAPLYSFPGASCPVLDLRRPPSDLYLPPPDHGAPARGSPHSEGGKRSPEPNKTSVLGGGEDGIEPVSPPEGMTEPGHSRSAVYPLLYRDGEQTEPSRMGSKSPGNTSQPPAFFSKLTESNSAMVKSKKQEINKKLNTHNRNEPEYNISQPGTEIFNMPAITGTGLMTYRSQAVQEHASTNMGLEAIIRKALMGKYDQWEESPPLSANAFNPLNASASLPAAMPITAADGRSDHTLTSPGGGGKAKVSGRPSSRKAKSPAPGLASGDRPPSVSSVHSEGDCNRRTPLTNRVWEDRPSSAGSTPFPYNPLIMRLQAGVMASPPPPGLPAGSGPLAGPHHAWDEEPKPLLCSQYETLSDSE

For the compound `Nc1cc(F)ccc1NC(=O)CCCCCNC(=O)C=C1c2ccccc2-c2ccccc21` [Example 12, 6-(2-(9H-fluoren-9-ylidene)acetamido)-N-(2-amino-4-fluorophenyl)hexanamide], the “% of SAHA Response for HDAC Class I at 10 μM (P21 reporter gene)” value in test [1] was 39%. For the same compound, the activation at 10 µM in test [2] was 26%; in test [3], 38%. In addition, the GI50 in test [4] turned out to be 3.89 µM; in test [5] it was 2.29 µM; in test [6], 22.9 µM; in test [7] it was 18.2 µM.
With `Nc1ccccc1NC(=O)CCCCCNC(=O)C=C1c2ccccc2-c2ccccc21` [Example 13, 6-(2-(9H-fluoren-9-ylidene)acetamido)-N-(2-aminophenyl)hexanamide], in test [1], the “% of SAHA Response for HDAC Class I at 10 μM (P21 reporter gene)” value is 133%. Moreover, the activation at 10 µM in test [2] and in test [3] was 66% each time. Moreover, the GI50 in test [4] was found to be 1.35 µM; in test [5], 1.35 µM; in test [6] it was 8.32 µM; in test [7], 4.9 µM.
